Results as given in patent US20090215884A1, “METHOD FOR WOUND HEALING” (priority 2005, published 2009).

Legend:
[1] = test system: dermal fibroblasts; assay: MTT cell viability and proliferation, dermal fibroblasts; assay type: cell-based, human
Description: A normal adult skin biopsy (6 mm) was obtained (n=1), with informed consent, from an individual attending the Oral Surgery Clinic, School of Dentistry, Wales College of Medicine, Cardiff. Following the application of a local anaesthetic, the dermal biopsy was collected and adult dermal fibroblast cultures established by single cell suspension technique, following enzymic degradation of the specimen. This technique has previously been reliably used to establish viable primary cultures of both oral and dermal fibroblasts in vitro (Cook et al, 2000; Stephens et al, 2001; 2003). Dermal fibroblasts were cultured in Fibroblast-Serum Containing Medium, containing Dulbecco's Modified Eagle's Medium (DMEM), supplemented with L-glutamine (2 mM), antibiotics (100 U/ml penicillin G sodium, […] streptomycin sulphate and 0.25 μg/ml amphotericin B) and 10% fetal calf serum (all purchased from Invitrogen Ltd., Paisley, U.K.). Dermal fibroblast cultures were maintained at 37° C., in a 5% CO2/95% air atmosphere, with the culture medium being changed every 2-3 days. Dermal fibroblasts were used between passage 7-17, for all experiments.
Prior to use, the PEP005/DMSO stock solution was removed from 4° C. storage and warmed to room temperature. The required volumes of PEP005/DMSO were aliquoted into a poly-propylene vessel and the PEP005/DMSO diluted to the required concentration (typically 0.01 μg/ml, 0.1 μg/ml, 1 μg/ml, 10 μg/ml and […]) in Fibroblast-Serum Containing Medium (for dermal fibroblast cultures) or serum-free, EpiLife® Medium (for epidermal keratinocyte cultures), with fresh PEP005/culture medium solutions being prepared daily, at the various concentrations above, due to solution stability. Prior to discarding PEP005/culture medium solutions, at least two volumes of 0.1% sodium hydroxide (Sigma Chemical Co.), in 95% ethanol/5% methanol (both from Fisher Scientific, Leicestershire, U.K.), was added to each solution, to decontaminate.
The MTT [3-(4,5-dimethyl-2-thiazolyl)-2,5-diphenyltetrazolium bromide] dye-reduction assay was employed for the assessment of dermal fibroblast and epidermal keratinocyte cell viability and proliferation, according to Cook et al (2000). Following trypzinisation, dermal fibroblast or epidermal keratinocyte were seeded in 96-well microtitre plates (VWR International Ltd., Leicestershire, U.K.), at a cell density of 2.5×10^3 cell/well and 5×10^3 cell/well, respectively. Following cell seeding for 24 h and 48 h, respectively, the dermal fibroblast and epidermal keratinocyte culture medium were replaced with culture medium (100 μl/well), containing 0, 0.01 μg/ml, 0.1 μg/ml, 1 μg/ml, 10 μg/ml or 100 μg/ml PEP005 (six culture wells per PEP005 concentration). […]

[2] = test system: dermal fibroblasts; assay: Dermal fibroblast differentiation (α-smooth muscle actin expression); assay type: cell-based, human; conditions: absence of TGF-β1
Description: The effects of PEP005 on dermal fibroblast differentiation to myofibroblasts, was examined by the extent of α-smooth muscle actin expression by the differentiating dermal fibroblasts, following stimulation with TGF-β. Following trypsinization, the dermal fibroblasts were suspended in Fibroblast-Serum Containing Medium, containing 10% fetal calf serum, at a cell density of 2.5×10^4 cells/ml. Aliquots (250 μl/well) of the dermal fibroblast cell suspension were seeded into 8-well chamber slides (VWR International Ltd.) and maintained at 37° C., in a 5% CO2/95% air atmosphere, until approximately 30-40% confluent. […] Various controls (three chamber slide per control) were also established, including (i) Fibroblast-Serum Containing Medium alone, (ii) cells in Fibroblast-Serum Containing Medium (cytokeratin or vimentin 1° Ab control), (iii) cells in Fibroblast-Serum Containing Medium, containing 10 ng/ml TGF-β and 1% DMSO, and (iv) cells in Fibroblast-Serum Containing Medium, containing 1% DMSO.
The chamber slides were maintained at 37° C., in a 5% CO2/95% air atmosphere, for 3 days, by which time, the cells had reached approximately 75% confluence. Chamber slides were fixed in 1:1 ice cold, acetone:methanol (300 μl/well) for 20 min and blocked in 1% BSA in PBS, at 4° C., for 1 h. […]

`C/C=C(/C)C(=O)O[C@H]1C(C)=C[C@]23C(=O)[C@@H](C=C(CO)[C@@H](O)[C@]12O)[C@H]1[C@@H](C[C@H]3C)C1(C)C` [PEP005, ingenol-3-angelate] was tested, and the “dermal fibroblast cell viability/proliferation (MTT)” value ([1]; 0.01 μg/ml PEP005, day 7) was “appeared to stimulate cell viability/proliferation”, the “dermal fibroblast cell viability/proliferation (MTT)” value ([1]; 0.1 μg/ml PEP005, day 7) was “appeared to stimulate cell viability/proliferation” and the “dermal fibroblast cell viability/proliferation (MTT)” value ([1]; 10 μg/ml PEP005, days 1, 3 and 5) was “stimulatory effect”. The “dermal fibroblast cell viability/proliferation (MTT)” value ([1]; 100 μg/ml PEP005, compared to untreated fibroblast controls) was “cytotoxic effect”, the “α-smooth muscle actin expression” value ([2]; 1 μg/ml PEP005) was “detectable α-smooth muscle actin microfilaments” and the “α-smooth muscle actin expression” value ([2]; 10 μg/ml PEP005) was “detectable α-smooth muscle actin microfilaments”.
